Experimental data taken from publication PMC9229798, “Antioxidant Activity and Cytotoxicity of Aromatic Oligosulfides” (Molecules, 2022).

What was measured:
[1] = TBARS accumulation in liver homogenate (long-term LPO); design: species or system Russian sturgeon; conditions: 0.1 mM
Excerpt: The liver is the main organ that all metabolic products pass through. In addition, proteins of the antioxidant defense system are concentrated in the liver, which prevent the toxic effects of various ROS. The oxidation of liver lipids, which compose cell membranes, directly causes cell damage in vivo. Therefore, the liver is similar to biological systems and is considered as a classic model system for studying LPO processes in vitro and in vivo [56]. We studied the antioxidant potential of the compounds on a model system of a long-term process of lipid peroxidation in sturgeon liver. The assay allowed evaluation of the effect of the compounds under prolonged oxidative stress when possible an increase in peroxidation processes and a decrease of antioxidants concentration over time, and inversion of antioxidant/prooxidant properties in vitro [57].
The experiments in vitro were carried out using the liver of a Russian sturgeon raised in a unique aqua complex for the reproduction of valuable fish species of the Federal Research Center Southern Scientific Center of the Russian Academy of Sciences within the framework of State Assignment (Project No. 122020100328-1). All manipulations were conducted according to the international rules GLP (Good Laboratory Practice). The samples of fish liver were fixed in the cold.
The LPO intensity was estimated according to the accumulation of carbonyl products forming a colored complex with thiobarbituric acid (TBARS). A liver of Russian sturgeon (10 g) was homogenized in the cold, and the studied compounds were added at a concentration of 0.1 mM in EtOH to a solution of 1.2% potassium chloride (390 mL) precooled to 0–4 °C. The absence of any influence of EtOH on the LPO rate in the control was preliminarily established under these conditions. […] The supernatant was sampled, and the extinction of sample was measured using a SF-103 spectrophotometer at λ = 532 nm relative to the control sample. […]

[2] = system: SOD; design: method as in doi:10.3906/kim-1904-40; conditions: adrenaline oxidation with biopreparation; cited from earlier work
[3] = design: method as in doi:10.3906/kim-1904-40; conditions: adrenaline autoxidation in alkaline buffer; cited from earlier work
[4] = design: method as in doi:10.1016/j.arabjc.2021.103068; conditions: oleic acid, 1 mmol/L additive, 65 °C; cited from earlier work
[5] = system: MCF-7; design: method as in doi:10.3906/kim-1904-40; conditions: CLC-Pred, cited from earlier work; for Cytotoxicity MCF-7, Pi: probability of lack of activity; for Cytotoxicity MCF-7, Pa: probability of presence of activity
[6] = design: method as in doi:10.3906/kim-1904-40; conditions: Trolox equivalents; cited from earlier work
[7] = design: method as in doi:10.1016/j.arabjc.2021.103068; conditions: read-out: DPPH IC50; cited from earlier work
[8] = design: method as in doi:10.1016/j.arabjc.2021.103068; conditions: 1 mmol/L additive, 65 °C; cited from earlier work
[9] = system: HCT-116; assay: Annexin V/Dead Cell assay; format: cell-based, human
Excerpt: Apoptosis or programmed cell death is an important and active regulatory pathway of cell growth and proliferation. Cells respond to specific induction signals by initiating intracellular processes that result in characteristic physiological changes. Among these are externalization of phosphatidylserine (PS) to the cell surface, cleavage and degradation of specific cellular proteins, compaction and fragmentation of nuclear chromatin, and loss of membrane integrity. Phosphatidylserine (PS) is normally located in the inner part of the cell membrane. In the initial stage of apoptosis, the PS residues which translocated to the extracellular are detected by Annexin V, which is a calcium-dependent phospholipid-binding protein with a high affinity for PS. Annexin V flow cytometric assay was used to evaluate the compounds’ ability to induce apoptosis and influence on cell death. HCT-116 colon carcinoma and A-549 lung adenocarcinoma cells were treated by disulfides 2 and 3.
HCT-116 (colon carcinoma) and A-549 (lung carcinoma) cells (1 × 10^6) were seeded in a six-well plate and were incubated for 24 h. […] After incubation, the cells were harvested by trypsinization, precipitated by centrifugation (3000 rpm), washed with PBS, recentrifuged, and the buffer was removed. DMEM was added to achieve a cell concentration of 400–1000 cells/µL. The Muse Annexin V & Dead Cell Kit reagent (100 µL) was added to the cells and […] for 20 min at room temperature in the dark. The results were recorded on a Muse Cell Analyzer flow cytometer (Merck, Rahway, NJ, USA).

Compound	reduction of the level of TBARS ([1]; after 1 h of incubation) [%]	reduction of the level of TBARS ([1]; after 24 h) [%]	reduction of the level of TBARS ([1]; after 48 h) [%]	melting point [°C]	SOD Activity of Liver Sturgeon, % Inhibition [2] [%]	Antiradical Activity, % Inhibition [3] [%]	TBARS, % Inhibition [4] [%]	Cytotoxicity MCF-7, Pi [5]	Cytotoxicity MCF-7, Pa [5]	TEAC CUPRAC [6]	IC50 [7] [µM]	LOOH, k0/k1 (relative rate constant of LOOH formation) [8]	Early Apop. ([9]; HCT-116, 2 × IC50, 24 h) [%]	Late Apop./Dead ([9]; HCT-116, 2 × IC50, 24 h) [%]	total apoptotic cells ([9]; HCT-116, 2 × IC50, 24 h) [%]	Late Apop./Dead ([9]; HCT-116, 2 × IC50, 48 h) [%]	total apoptotic cells ([9]; HCT-116, 2 × IC50, 48 h) [%]
c1ccc(SSSc2ccccc2)cc1 [Compound 1, diphenyl trisulfide]	64	48	37	58 to 60													
CC(C)(C)c1cc(SSc2cc(C(C)(C)C)c(O)c(C(C)(C)C)c2)cc(C(C)(C)C)c1O [Compound 6, bis(3,5-di-tert-butyl-4-hydroxyphenyl) disulfide]					85 ± 3.0	37 ± 4.8	73.1 ± 1.30	0.082	0.403	2.04 ± 0.05	20.09 ± 0.02	0.49 ± 0.05					
c1ccc(SSc2ccccc2)cc1 [Compound 5, diphenyl disulfide]					61 ± 4.8	56 ± 2.9	24.6 ± 0.29	0.005	0.882	0.10 ± 0.01		0.79 ± 0.11					
COc1ccc(SSc2ccc(OC)c(OC)c2)cc1OC [Compound 3, bis(3,4-dimethoxyphenyl) disulfide]													9.1	2.7	11.8	17.7	44
